Patent US20200115353A1, “NEW COMPOUNDS INHIBITORS OF THE YAP/TAZ-TEAD INTERACTION AND THEIR USE IN THE TREATMENT OF MALIGNANT MESOTHELIOMA” (INVENTIVA, priority 2017, published 2020)

Assays:
[1] = biological target: T1, YAP-TEAD interaction (full length human TEAD1-Gal4 fusion, full length YAP mutant S127A, S397A) (UniProt P04386+P28347); assay: Cell-based TEAD-GAL4 transactivation assay (luciferase reporter, HEK293); details: HEK293 cells, compounds 0.1 μM to 30 μM, 24 h, concentration that inhibited the luciferase activity by 50%
T1 construct: The TEAD1 construct was prepared by cloning the full length human TEAD1 cDNA; expressed in transfected cells; host or cells: HEK293 GripTite 293 MSR (Invitrogen R795-07), transiently transfected with pSG5_CMV plasmids
Experimental: To identify inhibitors of YAP-TEAD interaction, a transient transactivation assays was carried out into HEK293 cell line (HEK293 GripTite™ 293 MSR (Invitrogen R795-07)) using plasmids containing the full length TEAD1 sequences, the full length YAP mutant (S127A, S397A) and a luciferase gene reporter. All expression constructs were performed into pSG5 backbone plasmid in which the SV40 promoter was replaced by the CMV promoter. The TEAD1 construct was prepared by cloning the full length human TEAD1 cDNA in fusion with the Gal4 DNA Binding Domain (AA 1-148) into pSG5_CMV to create the TEAD1(FL)_hum_pSG5Gal4_CMV. The full length YAP mutant (S127A, S397A) was also cloned into pSG_5 CMV to create the YAP(FL)_hum_pSG5_[…]. The reporter plasmid GAL4(5×RE)_[…]_pGL3-Basic contains 5 copies of the GAL4 responsive element (5′-TCGGAGGACAGTACTCC-3′) upstream of the thymidine kinase (TK) promoter (−105/+56) inserted in a pGL3-Basic vector. To evaluate the selectivity of our compounds in blocking the YAP-TEAD interaction, a counter-screening protein-protein interaction transactivation assays was also established. Briefly, two other expression plasmids, the pBD-P53 which express the P53 (AA 72-390) in fusion with Gal4 and the pAD-SV40T which express the SV40 large T antigen (AA 84-708,AgT), were created. HEK293 cells were seeded at 5×10^4 cells/well in 96 well plates (assay plates) in DMEM medium containing 4.5 g/L D-glucose, 10% high inactivated (HI) fetal bovine serum 1% Glutamax, 1% non-essential amino acid and 1% sodium pyruvate and 0.5% penicillin/streptomycin 37° C. in a humidified atmosphere of 8% CO2. After 24 h, transfections are performed using Jet-PEI as transfectant (101B-010 Polyplus Transfection), according to the instructions of the manufacturer (N/P=10) and a ratio YAP/TEAD=10 (per well: 50 ng of YAP(FL), 5 ng of TEAD(FL) and 50 ng of reporter plasmid). Six hours after cell transfection, the plates (‘assay plate’) were washed with 100 μl PBS per well and cell were treated with compounds in semi-log from 0.1 μM to 30 μM or DMSO 0.5% as control in DMEM 4.5 g/L D-Glucose without phenol red, 0.3% BSA, 1% glutamax, 1% NEAA, 1% sodium pyruvate. Twenty-four hours later, the luciferase activity was determined after addition of 100 μl of Steady Glo™ luciferase assay system (Promega E2550) according to the manufacturer's directions. Luciferase activity in cell extracts is measured by reading luminescence using the Envision device.
The cellular response was determined by fitting the concentration response curves using a 3-parameter curve fit equation and determining the concentration that inhibited the luciferase activity by 50%.

[2] = test system: Met5A cell line; assay: Cell proliferation in YAP-independent cell line (EdU); assay type: cell-based; details: FIG. 1
Experimental: (§1) The tumor cell growth inhibitory activity of the YAP-TEAD interaction inhibitors was evaluated in NCI-H2052 mesothelioma cell line harboring a NF2 mutation. This cell line was selected based on its mutational status and the ability of a siRNA directed against YAP, TAZ or TEAD1-4 to inhibit cell proliferation. The nuclear localization of YAP at confluence was also taken into account. Based on these observations we were able to classify several “YAP dependent cells” where YAP is clearly nuclear and in which a cell growth inhibition is observed by using siRNA (NCI-H2052, SKOV-3, ACHN, A549) and the “YAP independent cells” where YAP is preferentially located in the cytoplasm and in which no inhibition of cell growth is observed by using a siRNA (SW620, Met-5a). […] After one day growth in the starvation medium, cells were incubated with compounds. The starting concentration was 30 μM and serial dilutions in DMSO and medium were performed until 0.1 μM to achieve a final DMSO concentration of 0.5%. The cells were then allowed to grow for 3 days, and then, EdU (Invitrogen, Molecular Probe) was added in each well at a final concentration of 10 μM and the cells were returned to the incubator for additional 24 h. Starvation medium was removed and 100 μl of PFA 4% containing Hoechst dye was adding in each well to fix the cells. Plates were then incubated at rt for 15 minutes, washed twice with PBS and the cells were permeabilized by adding 100 μl per well of triton-100 containing 0.3% BSA. After 20 minutes cells were washed with PBS and the EdU detection was performed according to the instructions of the manufacturer. Image acquisition was performed using the ImageXpress Micro and analysed using the MetaXpress software (Molecular Device).
(§2) Results were expressed as a percent of inhibition (%) of the cell proliferation values obtained with 0.5% DMSO treatment alone. The cellular response was determined by fitting the concentration response curves using a 3 parameter curve fit equation and determining the concentration that inhibited cell growth between 50% and 100%.

[3] = test system: NCI-H2052 mesothelioma cell line; assay: Inhibition of malignant mesothelioma tumor cell growth (EdU proliferation); assay type: cell-based; details: NF2 mutated cell line, 0.1-30 μM, FIG. 1
Experimental: as §1, §2

T1 sequence (P04386+P28347 fused, stated change not applied): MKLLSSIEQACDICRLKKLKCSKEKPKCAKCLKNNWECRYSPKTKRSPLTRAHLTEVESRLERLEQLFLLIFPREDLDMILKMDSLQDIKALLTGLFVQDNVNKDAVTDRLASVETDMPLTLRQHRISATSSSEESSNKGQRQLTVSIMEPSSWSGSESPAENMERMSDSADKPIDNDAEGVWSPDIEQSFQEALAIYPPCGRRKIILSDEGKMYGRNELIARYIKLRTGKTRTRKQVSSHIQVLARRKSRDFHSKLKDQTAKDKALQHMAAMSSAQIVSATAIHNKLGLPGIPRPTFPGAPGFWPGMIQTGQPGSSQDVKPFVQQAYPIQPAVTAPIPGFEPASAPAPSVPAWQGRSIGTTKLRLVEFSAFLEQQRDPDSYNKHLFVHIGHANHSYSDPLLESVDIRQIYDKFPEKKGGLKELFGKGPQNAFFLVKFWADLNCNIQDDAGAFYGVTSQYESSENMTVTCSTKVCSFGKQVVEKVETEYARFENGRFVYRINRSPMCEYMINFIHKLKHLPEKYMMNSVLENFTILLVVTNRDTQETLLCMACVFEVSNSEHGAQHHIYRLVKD

Structure (SMILES) | melting point | IC50 [1] | effect on proliferation of Met5A cell line [2] | NCI-H2052 mesothelioma cell proliferation [3]
Cc1ncc(/C=N/N(C)C2=NS(=O)(=O)c3ccccc32)s1 [Ex 118, N-methyl-N-[(E)-(2-methylthiazol-5-yl)methyleneamino]-1,1-dioxo-1,2-benzothiazol-3-amine] | 248 °C | 3.97 µM | – | –
CN(/N=C/c1ccc2[nH]c(=O)n(C3CCC3)c2c1)C1=NS(=O)(=O)c2ccccc21 [Ex 28, 3-cyclobutyl-5-[(E)-[(1,1-dioxo-1,2-benzothiazol-3-yl)-methyl-hydrazono]methyl]-1H-benzimidazol-2-one] | – | 3.06 µM | without showing any effect | inhibited NCI-H2052 mesothelioma cell proliferation
COc1cc(/C=N/N(C)C2=NS(=O)(=O)c3cc(B4OC(=O)CN(C)CC(=O)O4)ccc32)ccc1F [Ex 68, 2-[3-[[(E)-(4-fluoro-3-methoxy-phenyl)methyleneamino]-methyl-amino]-1,1-dioxo-1,2-benzothiazol-6-yl]-6-methyl-1,3,6,2-dioxazaborocane-4,8-dione] | – | 4.5 µM | without showing any effect | inhibited NCI-H2052 mesothelioma cell proliferation
COCCOc1ccc2c(c1)C(N(C)/N=C/c1ccc(F)c(OC)c1)=NS2(=O)=O [Ex 56, N-[(E)-(4-fluoro-3-methoxy-phenyl)methyleneamino]-5-(2-methoxyethoxy)-N-methyl-1,1-dioxo-1,2-benzothiazol-3-amine] | 200 °C | 2.31 µM | – | –
COc1cc(/C=N/N(C)C2=NS(=O)(=O)c3cc(B(O)O)ccc32)ccc1F [Ex 50, [3-[[(E)-(4-fluoro-3-methoxy-phenyl)methyleneamino]-methyl-amino]-1,1-dioxo-1,2-benzothiazol-6-yl]boronic acid] | – | 3.03 µM | without showing any effect | inhibited NCI-H2052 mesothelioma cell proliferation
CCN(/N=C/c1ccc2c(c1)C(C)(C)NC2=O)C1=NS(=O)(=O)c2ccccc21 [Ex 85, 5-[(E)-[(1,1-dioxo-1,2-benzothiazol-3-yl)-ethyl-hydrazono]methyl]-3,3-dimethyl-isoindolin-1-one] | 289 to 291 °C | – | – | –
CNC(=O)Cc1ccc(/C=N/N(C)C2=NS(=O)(=O)c3ccccc32)cc1OC [Ex 20, 2-[4-[(E)-[(1,1-dioxo-1,2-benzothiazol-3-yl)-methyl-hydrazono]methyl]-2-methoxy-phenyl]-N-methyl-acetamide] | 228 to 231 °C | – | – | –
CCC1(CC)C(=O)Nc2ccc(/C=N/N(C)C3=NS(=O)(=O)c4ccccc43)cc21 [Ex 34, 5-[(E)-[(1,1-dioxo-1,2-benzothiazol-3-yl)-methyl-hydrazono]methyl]-3,3-diethyl-indolin-2-one] | 288 to 289 °C | – | – | –

Continued, in another order:

melting point | Structure (SMILES) | IC50 [1] | effect on proliferation of Met5A cell line [2] | NCI-H2052 mesothelioma cell proliferation [3]
281 to 300 °C | CN(/N=C/c1cnc(N2CCOCC2)s1)C1=NS(=O)(=O)c2ccccc21 [Ex 7, N-methyl-N-[(E)-(2-morpholinothiazol-5-yl)methyleneamino]-1,1-dioxo-1,2-benzothiazol-3-amine] | – | – | –
> 298 °C | CC1NC(=O)c2ccc(/C=N/N(C)C3=NS(=O)(=O)c4ccccc43)cc21 (stereo not drawn) [Ex 31, 5-[(E)-[(1,1-dioxo-1,2-benzothiazol-3-yl)-methyl-hydrazono]methyl]-3-methyl-isoindolin-1-one] | – | – | –
313 to 315 °C | CN(/N=C/c1ccc2[nH]nnc2c1)C1=NS(=O)(=O)c2ccccc21 [Ex 35, N-[(E)-1H-benzotriazol-5-ylmethyleneamino]-N-methyl-1,1-dioxo-1,2-benzothiazol-3-amine] | – | – | –
256 to 258 °C | CN(/N=C/c1cnc(N2CCC2)s1)C1=NS(=O)(=O)c2ccccc21 [Ex 61, N-[(E)-[2-(azetidin-1-yl)thiazol-5-yl]methyleneamino]-N-methyl-1,1-dioxo-1,2-benzothiazol-3-amine] | – | – | –
230 to 280 °C | CN(/N=C/c1ccc(F)c(OC(F)(F)F)c1)C1=NS(=O)(=O)c2ccccc21 [Ex 78, N-[(E)-[4-fluoro-3-(trifluoromethoxy)phenyl]methyleneamino]-N-methyl-1,1-dioxo-1,2-benzothiazol-3-amine] | – | – | –
